Where two headings read alike, the source gives them in different places.
Legend:
EGFR L858R/C797S = EGFR L858R/C797S (Homo sapiens, UniProt P00533, C797S/L858R); assay: Biochemical EGFR kinase assay (Lance Ultra TR-FRET), double mutant L858R/C797S
Summary of the method: (§1)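 Step 1: compound in kinase buffer, 0.003–10 μM. Step 2: kinase reaction 1 h at room temperature. Step 4: TR-FRET read at 615/665 nm; IC50 calculated.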

EGFR wildtype (WT) = EGFR wildtype (WT) (Homo sapiens, UniProt P00533); assay: Biochemical EGFR kinase assay (Lance Ultra TR-FRET), wildtype
Summary of the method: as §1

EGFR del19/T790M/C797S = EGFR del19/T790M/C797S (Homo sapiens, UniProt P00533, C797S/DEL746-750/T790M); assay: Biochemical EGFR kinase assay (Lance Ultra TR-FRET), triple mutant del19/T790M/C797S
Summary of the method: as §1

EGFR L858R/T790M/C797S = EGFR L858R/T790M/C797S (Homo sapiens, UniProt P00533, C797S/L858R/T790M); assay: Biochemical EGFR kinase assay (Lance Ultra TR-FRET), triple mutant L858R/T790M/C797S
Summary of the method: as §1

EGFR del19/C797S = EGFR del19/C797S (Homo sapiens, UniProt P00533, C797S/DEL746-750); assay: Biochemical EGFR kinase assay (Lance Ultra TR-FRET), double mutant del19/C797S
Summary of the method: as §1

[1] = IC50 L858R/C797S (nM) 100 μM ATP, 100 μM ATP
[2] = Km ATP, read-out: IC50 L858R/C797S (nM) Km ATP
[3] = IC50 WT (nM) 100 μM ATP, 100 μM ATP
[4] = IC50 del19/T790M/C797S (nM) 100 μM ATP, 100 μM ATP
[5] = Km ATP, read-out: IC50 del19/T790M/C797S (nM) Km ATP
[6] = IC50 L858R/T790M/C797S (nM) 100 μM ATP, 100 μM ATP
[7] = Km ATP, read-out: IC50 L858R/T790M/C797S (nM) Km ATP
[8] = IC50 del19/C797S (nM) 100 μM ATP, 100 μM ATP
[9] = Km ATP, read-out: IC50 del19/C797S (nM) Km ATP
[10] = Km ATP, read-out: IC50 L858R/C797S, Km ATP
[11] = Km ATP, read-out: IC50 WT, Km ATP
[12] = Km ATP, read-out: IC50 del19/T790M/C797S, Km ATP
[13] = Km ATP, read-out: IC50 L858R/T790M/C797S, Km ATP
[14] = Km ATP, read-out: IC50 del19/C797S, Km ATP
[15] = Km ATP, read-out: IC50 WT (nM) Km ATP

EGFR wildtype (WT), sequence (P00533 25-1210): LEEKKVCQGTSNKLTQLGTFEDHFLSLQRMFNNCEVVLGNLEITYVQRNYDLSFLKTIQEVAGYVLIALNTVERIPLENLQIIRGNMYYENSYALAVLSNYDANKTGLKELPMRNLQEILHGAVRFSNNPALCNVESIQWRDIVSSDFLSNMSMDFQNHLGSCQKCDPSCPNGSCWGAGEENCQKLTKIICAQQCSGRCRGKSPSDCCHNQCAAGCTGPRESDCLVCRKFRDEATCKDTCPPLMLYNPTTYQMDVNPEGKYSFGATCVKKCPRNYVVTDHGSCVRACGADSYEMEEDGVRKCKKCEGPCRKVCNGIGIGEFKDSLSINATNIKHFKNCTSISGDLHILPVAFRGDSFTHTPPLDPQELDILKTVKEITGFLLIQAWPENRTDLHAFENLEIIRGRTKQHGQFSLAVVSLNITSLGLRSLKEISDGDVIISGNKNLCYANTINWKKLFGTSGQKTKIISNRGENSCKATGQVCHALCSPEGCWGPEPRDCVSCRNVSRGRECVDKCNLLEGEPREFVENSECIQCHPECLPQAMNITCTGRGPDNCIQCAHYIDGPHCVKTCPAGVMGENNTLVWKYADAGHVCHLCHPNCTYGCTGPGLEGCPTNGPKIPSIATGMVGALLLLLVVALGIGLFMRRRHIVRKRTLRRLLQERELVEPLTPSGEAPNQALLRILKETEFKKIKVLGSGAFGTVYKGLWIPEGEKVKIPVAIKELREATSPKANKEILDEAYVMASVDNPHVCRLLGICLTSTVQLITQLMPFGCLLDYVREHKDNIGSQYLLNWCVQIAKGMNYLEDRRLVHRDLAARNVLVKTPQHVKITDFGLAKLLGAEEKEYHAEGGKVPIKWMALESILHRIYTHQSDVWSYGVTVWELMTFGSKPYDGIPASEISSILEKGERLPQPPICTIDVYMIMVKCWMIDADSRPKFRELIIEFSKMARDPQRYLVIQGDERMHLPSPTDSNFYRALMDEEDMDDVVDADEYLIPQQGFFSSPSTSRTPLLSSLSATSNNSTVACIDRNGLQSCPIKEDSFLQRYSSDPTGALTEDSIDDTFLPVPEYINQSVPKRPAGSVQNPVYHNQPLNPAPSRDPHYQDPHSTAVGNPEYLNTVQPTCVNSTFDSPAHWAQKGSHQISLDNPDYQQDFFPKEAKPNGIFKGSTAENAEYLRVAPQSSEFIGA
EGFR L858R/T790M/C797S, sequence (P00533 25-1210 T790M/C797S/L858R): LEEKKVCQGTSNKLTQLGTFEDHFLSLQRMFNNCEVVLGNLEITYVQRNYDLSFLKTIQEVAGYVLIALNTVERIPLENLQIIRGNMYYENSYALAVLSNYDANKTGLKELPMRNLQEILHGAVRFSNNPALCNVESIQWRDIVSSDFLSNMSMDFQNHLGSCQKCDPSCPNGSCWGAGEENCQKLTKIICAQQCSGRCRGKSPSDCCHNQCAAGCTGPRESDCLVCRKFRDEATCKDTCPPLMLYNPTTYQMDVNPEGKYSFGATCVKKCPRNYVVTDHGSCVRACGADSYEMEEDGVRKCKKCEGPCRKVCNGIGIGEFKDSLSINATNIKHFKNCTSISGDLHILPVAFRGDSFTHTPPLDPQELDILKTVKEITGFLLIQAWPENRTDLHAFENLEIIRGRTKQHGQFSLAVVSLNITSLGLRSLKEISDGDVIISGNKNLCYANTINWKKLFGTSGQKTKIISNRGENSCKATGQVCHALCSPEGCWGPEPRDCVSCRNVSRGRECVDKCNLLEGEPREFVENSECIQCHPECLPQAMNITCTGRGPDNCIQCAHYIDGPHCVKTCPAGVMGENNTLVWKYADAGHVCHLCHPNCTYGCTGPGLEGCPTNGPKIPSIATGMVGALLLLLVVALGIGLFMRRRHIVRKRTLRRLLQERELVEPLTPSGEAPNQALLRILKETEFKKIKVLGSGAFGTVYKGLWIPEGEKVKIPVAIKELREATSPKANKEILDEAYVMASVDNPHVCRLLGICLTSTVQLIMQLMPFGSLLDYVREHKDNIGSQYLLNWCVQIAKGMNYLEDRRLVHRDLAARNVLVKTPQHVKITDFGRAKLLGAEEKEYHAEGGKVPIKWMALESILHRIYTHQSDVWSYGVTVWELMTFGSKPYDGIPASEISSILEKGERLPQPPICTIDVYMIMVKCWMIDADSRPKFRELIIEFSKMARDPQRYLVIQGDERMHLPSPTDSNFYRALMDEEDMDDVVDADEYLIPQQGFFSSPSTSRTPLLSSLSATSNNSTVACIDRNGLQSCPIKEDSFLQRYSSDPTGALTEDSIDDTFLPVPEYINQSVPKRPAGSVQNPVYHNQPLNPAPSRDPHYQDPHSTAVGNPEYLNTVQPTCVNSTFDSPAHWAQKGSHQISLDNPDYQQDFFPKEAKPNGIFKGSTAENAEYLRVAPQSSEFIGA
EGFR L858R/C797S, sequence (P00533 25-1210 C797S/L858R): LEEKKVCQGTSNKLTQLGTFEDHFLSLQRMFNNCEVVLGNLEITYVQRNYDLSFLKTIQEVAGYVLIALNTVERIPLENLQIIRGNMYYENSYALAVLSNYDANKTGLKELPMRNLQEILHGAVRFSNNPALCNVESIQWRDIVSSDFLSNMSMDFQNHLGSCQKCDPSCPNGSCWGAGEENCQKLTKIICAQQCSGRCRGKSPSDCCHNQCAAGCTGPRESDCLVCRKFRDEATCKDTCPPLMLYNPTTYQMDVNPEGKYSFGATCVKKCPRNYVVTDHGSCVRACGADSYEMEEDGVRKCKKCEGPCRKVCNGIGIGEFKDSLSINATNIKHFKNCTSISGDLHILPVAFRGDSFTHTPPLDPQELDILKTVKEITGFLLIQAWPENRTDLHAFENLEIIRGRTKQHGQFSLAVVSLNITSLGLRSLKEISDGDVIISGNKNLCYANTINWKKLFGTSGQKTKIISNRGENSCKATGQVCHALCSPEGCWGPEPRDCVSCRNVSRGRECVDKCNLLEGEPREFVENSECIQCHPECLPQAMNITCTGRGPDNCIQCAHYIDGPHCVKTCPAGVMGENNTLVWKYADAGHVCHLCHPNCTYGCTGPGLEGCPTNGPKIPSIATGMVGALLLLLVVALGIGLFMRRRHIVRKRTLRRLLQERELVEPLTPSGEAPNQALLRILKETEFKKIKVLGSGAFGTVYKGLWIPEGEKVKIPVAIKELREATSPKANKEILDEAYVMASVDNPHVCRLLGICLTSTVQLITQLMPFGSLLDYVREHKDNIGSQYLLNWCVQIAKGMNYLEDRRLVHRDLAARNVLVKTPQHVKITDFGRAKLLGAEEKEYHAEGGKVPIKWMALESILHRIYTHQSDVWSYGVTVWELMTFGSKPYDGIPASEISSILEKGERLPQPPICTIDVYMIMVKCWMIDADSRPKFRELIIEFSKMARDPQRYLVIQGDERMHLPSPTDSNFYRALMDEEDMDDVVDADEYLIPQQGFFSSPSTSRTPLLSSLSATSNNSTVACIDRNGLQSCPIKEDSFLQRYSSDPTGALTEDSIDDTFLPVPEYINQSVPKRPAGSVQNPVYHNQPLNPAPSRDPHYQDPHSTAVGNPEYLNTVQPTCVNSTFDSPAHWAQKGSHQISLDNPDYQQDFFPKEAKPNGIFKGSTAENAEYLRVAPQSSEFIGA
EGFR del19/C797S, sequence (P00533 with tags, fused parts or gaps DEL746-750/C797S): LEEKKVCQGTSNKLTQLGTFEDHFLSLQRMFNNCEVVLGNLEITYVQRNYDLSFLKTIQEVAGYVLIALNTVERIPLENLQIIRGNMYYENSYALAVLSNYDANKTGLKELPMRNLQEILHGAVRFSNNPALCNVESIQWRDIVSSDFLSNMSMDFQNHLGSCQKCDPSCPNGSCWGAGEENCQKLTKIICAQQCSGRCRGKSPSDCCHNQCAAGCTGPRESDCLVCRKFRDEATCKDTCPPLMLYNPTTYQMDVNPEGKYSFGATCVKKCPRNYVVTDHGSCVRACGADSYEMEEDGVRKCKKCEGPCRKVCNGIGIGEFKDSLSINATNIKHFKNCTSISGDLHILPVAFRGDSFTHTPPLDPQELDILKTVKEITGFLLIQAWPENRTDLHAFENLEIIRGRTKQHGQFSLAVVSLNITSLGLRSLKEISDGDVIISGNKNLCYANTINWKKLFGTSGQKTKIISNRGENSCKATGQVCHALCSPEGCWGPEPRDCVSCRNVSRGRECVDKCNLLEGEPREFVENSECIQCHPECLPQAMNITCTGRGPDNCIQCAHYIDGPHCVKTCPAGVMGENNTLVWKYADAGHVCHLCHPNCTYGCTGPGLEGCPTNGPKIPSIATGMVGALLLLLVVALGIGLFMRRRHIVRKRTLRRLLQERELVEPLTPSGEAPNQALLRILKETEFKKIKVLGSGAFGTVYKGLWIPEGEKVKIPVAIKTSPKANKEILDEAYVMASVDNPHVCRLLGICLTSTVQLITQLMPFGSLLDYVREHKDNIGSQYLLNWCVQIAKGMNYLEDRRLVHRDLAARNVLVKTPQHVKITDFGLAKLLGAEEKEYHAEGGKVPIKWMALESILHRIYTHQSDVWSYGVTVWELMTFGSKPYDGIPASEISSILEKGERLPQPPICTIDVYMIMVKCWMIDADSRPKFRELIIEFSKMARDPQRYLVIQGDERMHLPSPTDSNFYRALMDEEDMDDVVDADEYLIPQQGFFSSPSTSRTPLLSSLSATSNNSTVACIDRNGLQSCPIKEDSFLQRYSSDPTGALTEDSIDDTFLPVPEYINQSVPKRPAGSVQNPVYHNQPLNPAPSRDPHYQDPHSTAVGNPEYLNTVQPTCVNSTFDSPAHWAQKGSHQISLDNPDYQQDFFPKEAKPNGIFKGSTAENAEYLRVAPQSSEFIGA

SMILES | IC50 (EGFR L858R/C797S; [1]) | IC50 (EGFR L858R/C797S; [2]) | IC50 (EGFR wildtype (WT); [3]) | IC50 (EGFR del19/T790M/C797S; [4]) | IC50 (EGFR del19/T790M/C797S; [5]) | IC50 (EGFR L858R/T790M/C797S; [6]) | IC50 (EGFR L858R/T790M/C797S; [7]) | IC50 (EGFR del19/C797S; [8]) | IC50 (EGFR del19/C797S; [9]) | IC50 (EGFR L858R/C797S; IC50 L858R/C797S, 100 μM ATP) | IC50 (EGFR L858R/C797S; [10]) | IC50 (EGFR wildtype (WT); IC50 WT, 100 μM ATP) | IC50 (EGFR wildtype (WT); [11]) | IC50 (EGFR del19/T790M/C797S; IC50 del19/T790M/C797S, 100 μM ATP) | IC50 (EGFR del19/T790M/C797S; [12]) | IC50 (EGFR L858R/T790M/C797S; IC50 L858R/T790M/C797S, 100 μM ATP) | IC50 (EGFR L858R/T790M/C797S; [13]) | IC50 (EGFR del19/C797S; IC50 del19/C797S, 100 μM ATP) | IC50 (EGFR del19/C797S; [14]) | IC50 (EGFR wildtype (WT); [15])
CN(C)C[C@H]1CC[C@H](CNc2cc(Nc3ccnc(-c4cnn(S(=O)(=O)C5CC5)c4)n3)ncc2-c2csc(C(F)(F)F)n2)CC1 [Example 101, N^2-(2-(1-(Cyclopropylsulfonyl)-1H-pyrazol-4-yl)pyrimidin-4-yl)-N^4-(((1r,4r)-4-((dimethylamino)methyl)cyclohexyl)methyl)-5-(2-(trifluoromethyl)thiazol-4-yl)pyridine-2,4-diamine] | 3.8 nM | 0.8 nM | 828 nM | 0.3 nM | 0.3 nM | 0.3 nM | 0.1 nM | 0.4 nM | 0.4 nM |  |  |  |  |  |  |  |  |  |  | 
O=S(=O)(C1CC1)n1cc(-c2nccc(Nc3cc(NC4CC5(CC(O)C5)C4)c(-c4ccn(C(F)F)n4)cn3)n2)cn1 (stereo not drawn) [Example 103, 6-((2-((2-(1-(Cyclopropylsulfonyl)-1H-pyrazol-4-yl)pyrimidin-4-yl)amino)-5-(1-(difluoromethyl)-1H-pyrazol-3-yl)pyridin-4-yl)amino)spiro[3.3]heptan-2-ol] |  | 24 nM |  |  | 0.8 nM |  | 0.4 nM |  | 31 nM |  |  |  |  |  |  |  |  |  |  | 58.2 nM
COc1ncc(-c2nccc(Nc3cc(N[C@H]4CC[C@@](C)(O)CC4)c(-c4ccn(C(F)F)n4)cn3)n2)cc1F [Example 178, (1s,4s)-4-((5-(1-(Difluoromethyl)-1H-pyrazol-3-yl)-2-((2-(5-fluoro-6-methoxypyridin-3-yl)pyrimidin-4-yl)amino)pyridin-4-yl)amino)-1-methylcyclohexan-1-ol] |  | 3 nM |  |  | 46.2 nM |  | 16.8 nM |  | 102 nM |  |  |  |  |  |  |  |  |  |  | 2110 nM
O=S(=O)(C1CC1)n1cc(-c2nccc(Nc3cc(N[C@H]4CC[C@@H](F)CC4)c(-c4ccn(CCC(F)(F)F)n4)cn3)n2)cn1 [Example 306, N^2-(2-(1-(Cyclopropylsulfonyl)-1H-pyrazol-4-yl)pyrimidin-4-yl)-N^4-((1s,4s)-4-fluorocyclohexyl)-5-(1-(3,3,3-trifluoropropyl)-1H-pyrazol-3-yl)pyridine-2,4-diamine] |  | 47.9 nM |  |  | 9.1 nM |  | 5.9 nM |  | 171 nM |  |  |  |  |  |  |  |  |  |  | 1290 nM
C[C@]1(O)CC[C@@H](Nc2cc(Nc3ccnc(-c4cccnc4F)n3)ncc2-c2ccn(C(F)F)n2)CC1 [Example 171, (1s,4s)-4-((5-(1-(Difluoromethyl)-1H-pyrazol-3-yl)-2-((2-(2-fluoropyridin-3-yl)pyrimidin-4-yl)amino)pyridin-4-yl)amino)-1-methylcyclohexan-1-ol] |  | 86.4 nM |  |  | 2.6 nM |  | 2.2 nM |  | 96.6 nM |  |  |  |  |  |  |  |  |  |  | 523 nM
COCn1ccc(-c2cnc(Nc3ccnc(-c4cnn(S(=O)(=O)C5CC5)c4)c3)nc2N[C@H]2CC[C@@](C)(O)CC2)n1 [Example 358, (1s,4s)-4-((2-((2-(1-(Cyclopropylsulfonyl)-1H-pyrazol-4-yl)pyridin-4-yl)amino)-5-(1-(methoxymethyl)-1H-pyrazol-3-yl)pyrimidin-4-yl)amino)-1-methylcyclohexan-1-ol] |  |  |  |  |  |  |  |  |  |  | 3.7 nM |  | 39.6 nM |  | 0.2 nM |  | 0.3 nM |  | 2.3 nM | 
C[C@]1(O)CC[C@H](CNc2cc(Nc3ccnc(-c4cnn(S(=O)(=O)C5CC5)c4)n3)ncc2-c2ccn(C(F)F)n2)CC1 [Example 36, (1r,4r)-4-(((2-((2-(1-(Cyclopropylsulfonyl)-1H-pyrazol-4-yl)pyrimidin-4-yl)amino)-5-(1-(difluoromethyl)-1H-pyrazol-3-yl)pyridin-4-yl)amino)methyl)-1-methylcyclohexan-1-ol] | 33.8 nM | 3.9 nM | > 10000 nM | 1 nM | 0.8 nM | 1.2 nM | 0.3 nM | 6.8 nM | 5.4 nM |  |  |  |  |  |  |  |  |  |  | 25.1 nM

Continued, values first:

IC50 (EGFR L858R/C797S; [1]) | IC50 (EGFR L858R/C797S; [2]) | IC50 (EGFR wildtype (WT); [3]) | IC50 (EGFR del19/T790M/C797S; [4]) | IC50 (EGFR del19/T790M/C797S; [5]) | IC50 (EGFR L858R/T790M/C797S; [6]) | IC50 (EGFR L858R/T790M/C797S; [7]) | IC50 (EGFR del19/C797S; [8]) | IC50 (EGFR del19/C797S; [9]) | IC50 (EGFR L858R/C797S; IC50 L858R/C797S, 100 μM ATP) | IC50 (EGFR L858R/C797S; [10]) | IC50 (EGFR wildtype (WT); IC50 WT, 100 μM ATP) | IC50 (EGFR wildtype (WT); [11]) | IC50 (EGFR del19/T790M/C797S; IC50 del19/T790M/C797S, 100 μM ATP) | IC50 (EGFR del19/T790M/C797S; [12]) | IC50 (EGFR L858R/T790M/C797S; IC50 L858R/T790M/C797S, 100 μM ATP) | IC50 (EGFR L858R/T790M/C797S; [13]) | IC50 (EGFR del19/C797S; IC50 del19/C797S, 100 μM ATP) | IC50 (EGFR del19/C797S; [14]) | IC50 (EGFR wildtype (WT); [15]) | SMILES
 |  |  |  |  |  |  |  |  | 172 nM | 5.7 nM | > 10000 nM | 98.8 nM | 0.4 nM | 0.2 nM | 0.7 nM | 0.1 nM | 5.8 nM | 4.2 nM |  | O=S(=O)(C1CC1)n1cc(-c2nccc(Nc3cc(N[C@H]4C[C@@H](CO)C4)c(-c4ccn(C(F)F)n4)cn3)n2)cn1 [Example 377, ((1s,3s)-3-((2-((2-(1-(Cyclopropylsulfonyl)-1H-pyrazol-4-yl)pyrimidin-4-yl)amino)-5-(1-(difluoromethyl)-1H-pyrazol-3-yl)pyridin-4-yl)amino)cyclobutyl)methanol]
453 nM | 19 nM | 9960 nM | 3.9 nM | 3.9 nM | 2.6 nM |  | 22.7 nM | 19.6 nM |  |  |  |  |  |  |  |  |  |  | 46.9 nM | CC1(C)CC(Nc2cc(Nc3ccnc(-c4cnn(S(=O)(=O)C5CC5)c4)n3)ncc2-c2ccn(C(F)F)n2)CCC1O (stereo not drawn) [Example 106, 4-((2-((2-(1-(Cyclopropylsulfonyl)-1H-pyrazol-4-yl)pyrimidin-4-yl)amino)-5-(1-(difluoromethyl)-1H-pyrazol-3-yl)pyridin-4-yl)amino)-2,2-dimethylcyclohexan-1-ol]
 | 0.1 nM | 96.9 nM | 0.1 nM | 0.1 nM | 0.1 nM | 0.1 nM | 0.2 nM | 0.1 nM |  |  |  |  |  |  |  |  |  |  | 0.2 nM | CN(C)C[C@H]1CC[C@@H](Nc2cc(Nc3ccnc(-c4cnn(S(=O)(=O)C5CC5)c4)n3)ncc2-c2ccn(C)n2)CC1 [Example 226, N^2-(2-(1-(Cyclopropylsulfonyl)-1H-pyrazol-4-yl)pyrimidin-4-yl)-N^4-((1s,4s)-4-((dimethylamino)methyl)cyclohexyl)-5-(1-methyl-1H-pyrazol-3-yl)pyridine-2,4-diamine]
0.8 nM | 0.1 nM | 145 nM | 0.1 nM | 0.1 nM | 0.1 nM | 0.04 nM | 0.3 nM | 0.2 nM |  |  |  |  |  |  |  |  |  |  | 0.3 nM | CN(C)C[C@H]1CC[C@@H](Nc2cc(Nc3ccnc(-c4cnn(S(=O)(=O)C5CC5)c4)n3)ncc2-c2ccn(C(F)F)n2)CC1 [Example 195, N^2-(2-(1-(Cyclopropylsulfonyl)-1H-pyrazol-4-yl)pyrimidin-4-yl)-5-(1-(difluoromethyl)-1H-pyrazol-3-yl)-N^4-((1s,4s)-4-((dimethylamino)methyl)cyclohexyl)pyridine-2,4-diamine]
2 nM | 0.1 nM | 565 nM | 0.3 nM | 0.3 nM | 0.3 nM | 0.2 nM | 0.3 nM | 0.2 nM |  |  |  |  |  |  |  |  |  |  | 0.5 nM | CN(C)C(=O)C[C@H]1CC[C@@H](Nc2cc(Nc3ccnc(-c4cnn(S(=O)(=O)C5CC5)c4)n3)ncc2-c2ccn(C)n2)CC1 [Example 236, 2-((1s,4s)-4-((2-((2-(1-(Cyclopropylsulfonyl)-1H-pyrazol-4-yl)pyrimidin-4-yl)amino)-5-(1-methyl-1H-pyrazol-3-yl)pyridin-4-yl)amino)cyclohexyl)-N,N-dimethylacetamide]
 | 3.4 nM |  |  | 5.2 nM |  | 3.1 nM |  | 9.9 nM |  |  |  |  |  |  |  |  |  |  | 45.2 nM | O=S(=O)(C1CC1)n1cc(-c2nccc(Nc3cc(NC4CCC(F)CC4)c(-c4ccn(C(F)F)n4)cn3)n2)cn1 (stereo not drawn) [Example 214, N^2-(2-(1-(Cyclopropylsulfonyl)-1H-pyrazol-4-yl)pyrimidin-4-yl)-5-(1-(difluoromethyl)-1H-pyrazol-3-yl)-N^4-(4-fluorocyclohexyl)pyridine-2,4-diamine]
43.9 nM | 1.4 nM | > 10000 nM | 0.1 nM |  | 1.4 nM | 0.1 nM | 0.8 nM | 0.4 nM |  |  |  |  |  |  |  |  |  |  | 10 nM | Cn1ccc(-c2cnc(Nc3ccnc(-c4cnn(S(=O)(=O)C5CC5)c4)n3)cc2N[C@H]2CC[C@H](CO)CC2)n1 [Example 229, ((1r,4r)-4-((2-((2-(1-(Cyclopropylsulfonyl)-1H-pyrazol-4-yl)pyrimidin-4-yl)amino)-5-(1-methyl-1H-pyrazol-3-yl)pyridin-4-yl)amino)cyclohexyl)methanol]
 | 13.2 nM |  |  | 2.1 nM |  | 2.1 nM |  | 6.7 nM |  |  |  |  |  |  |  |  |  |  | 44.6 nM | O=S(=O)(C1CC1)n1cc(-c2nccc(Nc3cc(NC4CCCC(F)C4)c(-c4ccn(C(F)F)n4)cn3)n2)cn1 (stereo not drawn) [Example 181, N^2-(2-(1-(Cyclopropylsulfonyl)-1H-pyrazol-4-yl)pyrimidin-4-yl)-5-(1-(difluoromethyl)-1H-pyrazol-3-yl)-N^4-(3-fluorocyclohexyl)pyridine-2,4-diamine]

Source: patent US12258327B2, “5-membered heteroaryl-containing aminopyridine compounds as EGFR inhibitors” (YUHAN CORPORATION, priority 2021, dated 2025)
